Assays:
[1] = First-in-human PET/CT dosimetry study; assay type: in vivo; details: for ED: first-in-human (clinical)
Procedure: The first-in-human use of (S)-(−)-[^18F]fluspidine was authorized by the competent authorities in Germany, the Federal Institute for Drugs and Medical Devices (Bundesamt für Arzneimittel und Medizinprodukte, BfArM) and the Federal Office for Radiation Protection (Bundesamt für Strahlenschutz, BfS) as well as by the local ethics committee and was conducted in accordance with the Declaration of Helsinki. Informed consent was obtained from four healthy volunteers (2 f, 2 m; age: 23 ± 3 years; weight: 56 ± 4 kg). The volunteers were positioned supine with the arms down in a clinical PET/CT system (Biograph 16, Siemens, Erlangen, Germany) and received an intravenous injection of 255 ± 9 MBq (S)-(−)-[^18F]fluspidine. Simultaneously, the PET scan was started. It was divided into a dynamic part up to 2 h p.i. (7 frames) and a static part up to 7 h p.i. The volunteers left the investigation table four times to stretch out. All urine was collected, weighed, and the activity was determined in a gamma-counter (Packard Cobra II 5003 Auto Gamma Counting System, GMI, Ramsey, MN, USA) cross calibrated to the PET/CT system.
The PET images were iteratively (ordered-subsets expectation maximization, OSEM) reconstructed (preclinical: 4 iterations, 6 subsets; clinical: 4 iterations, 8 subsets) and corrected for decay, randoms, scatter, and dead time, μ-maps for attenuation correction of PET-emission data were derived from the CT or MR [49] structural data, respectively. The PET data were re-binned into 10 time frames (preclinical: 4 × 5 min, 1 × 10 min, and 5 × 15 min; clinical: 4 × 12 min, 3 × 16 min, 1 × 32 min, 1 × 40 min, and 1 × 48 min), and the reconstructed PET/MRI and PET/CT images were co-registered manually with ROVER (ABX, advanced chemical compounds, Radeberg, Germany, version 2.1.17). Quantitative evaluation was performed by drawing volumes of interest (VOI) for brain, gallbladder, large intestine, small intestine, stomach, heart, kidneys, liver, lungs, pancreas, red marrow (backbone, pelvis, sternum), spleen, thyroid, testes, and urinary bladder (Figure S4). The PET derived biokinetic data is expressed as percentage of injected activity (dose) per cubic centimeter (%ID/cm^3).
The human dosimetry estimation was performed with the data extrapolated as well as the genuine human data using OLINDA/EXM software. The time-activity curves were estimated by exponential fitting and calculating the time integral, which equals the number of disintegrations (NODs) per organ during the observation period normalized to 1 Becquerel administered activity dose. […] Therefore, activity data of the urinary bladder was derived from the image for each time point. In contrast, for humans the activity concentration data of the urinary bladder was obtained in a more direct approach. At first, the activity and volume of urine was determined in the last frame of the PET scan before each micturition. Afterwards, the voided urine was collected, weighed, and the activity of three aliquots (assuming 1 mL = 1 g) determined with a gamma counter, and the activity of the whole sample estimated. The difference between imaged and sampled urine activity is equal to the residue of radioactive urine in the urinary bladder. To calculate the NOD in the human urinary bladder, the time-activity curve is integrated using a trapezoidal equation (3) %ID˜UB=1/2∑i=1n−1(%IDi+%IDi+1)(ti+1−ti) with the fraction of injected activity %IDi at the time ti and the cumulated activity of the urinary bladder i.e., the NOD %ID˜UB .
Furthermore, the NODs of the gastric system were calculated following the ICRP GI model (ICRP 30) as implemented in OLINDA 1.0. The NODs obtained either from the EXM module or the trapezoidal equation were transferred to OLINDA. The OD for the chosen hermaphroditic adult male phantom is estimated following the MIRD scheme. The S values are pre-calculated and implemented for the respective phantom in OLINDA. […]

σ1 receptors [2] = molecular target: σ1 receptors; design: method as in PMID 24130175; details: read-out: Ki (affinity towards σ1 receptors); cited from earlier work
σ1 receptors [3] = test system: σ1 receptors; design: method as in PMID 25071097; details: σ1-rich areas of the porcine brain; cited from earlier work
[4] = first-in-human PET/CT, adult male model
[5] = first-in-human PET/CT, ICRP 103 weighting
[6] = four volunteers after i.v. injection

Structure (SMILES): FCC[C@@H]1OC2(CCN(Cc3ccccc3)CC2)c2ccccc21 [(S)-(−)-[^18F]fluspidine]
- ED ([1]; four healthy volunteers, ICRP 103 weighting): 21.0 ± 1.3 μSv/MBq
- ED ([1]; four healthy volunteers, ICRP 103 weighting, listed as (S)-(−)-[^18F]Fluspidine): 21.0 μSv/MBq
- OD Adrenals [1, 4]: 15.3 μSv/MBq
- OD Brain [1, 4]: 22.6 μSv/MBq
- OD Breasts [1, 4]: 6.5 μSv/MBq
- OD Gallbladder Wall [1, 4]: 60.7 μSv/MBq
- OD Heart Wall [1, 4]: 17.7 μSv/MBq
- OD Kidneys [1, 4]: 31.1 μSv/MBq
- OD LLI Wall [1, 4]: 16.6 μSv/MBq
- OD Liver [1, 4]: 76.0 μSv/MBq
- OD Lungs [1, 4]: 28.2 μSv/MBq
- OD Muscle [1, 4]: 7.8 μSv/MBq
- OD Osteogenic Cells [1, 4]: 18.0 μSv/MBq
- OD Ovaries [1, 4]: 13.8 μSv/MBq
- OD Pancreas [1, 4]: 15.9 μSv/MBq
- OD Red Marrow [1, 4]: 23.2 μSv/MBq
- OD Skin [1, 4]: 5.3 μSv/MBq
- OD Small Intestine [1, 4]: 56.9 μSv/MBq
- OD Spleen [1, 4]: 24.0 μSv/MBq
- OD Stomach Wall [1, 4]: 31.5 μSv/MBq
- OD Testes [1, 4]: 8.0 μSv/MBq
- OD Thymus [1, 4]: 7.5 μSv/MBq
- OD Thyroid [1, 4]: 8.4 μSv/MBq
- OD Total Body [1, 4]: 11.4 μSv/MBq
- OD ULI Wall [1, 4]: 24.3 μSv/MBq
- OD Urinary Bladder Wall [1, 4]: 24.7 μSv/MBq
- OD Uterus [1, 4]: 13.0 μSv/MBq
- ED Contr. Adrenals [1, 5]: 0.1 μSv/MBq
- ED Contr. Brain [1, 5]: 0.2 μSv/MBq
- ED Contr. Breasts [1, 5]: 0.8 μSv/MBq
- ED Contr. Gallbladder Wall [1, 5]: 0.5 μSv/MBq
- ED Contr. Heart Wall [1, 5]: 0.2 μSv/MBq
- ED Contr. Kidneys [1, 5]: 0.3 μSv/MBq
- ED Contr. LLI Wall [1, 5]: 1.0 μSv/MBq
- ED Contr. Liver [1, 5]: 3.0 μSv/MBq
- ED Contr. Lungs [1, 5]: 3.4 μSv/MBq
- ED Contr. Muscle [1, 5]: 0.1 μSv/MBq
- ED Contr. Osteogenic Cells [1, 5]: 0.2 μSv/MBq
- ED Contr. Ovaries [1, 5]: 1.0 μSv/MBq
- ED Contr. Pancreas [1, 5]: 0.1 μSv/MBq
- ED Contr. Red Marrow [1, 5]: 2.8 μSv/MBq
- ED Contr. Skin [1, 5]: 0.1 μSv/MBq
- ED Contr. Small Intestine [1, 5]: 0.5 μSv/MBq
- ED Contr. Spleen [1, 5]: 0.2 μSv/MBq
- ED Contr. Stomach Wall [1, 5]: 3.8 μSv/MBq
- ED Contr. Testes [1, 5]: 0.8 μSv/MBq
- ED Contr. Thymus [1, 5]: 0.1 μSv/MBq
- ED Contr. Thyroid [1, 5]: 0.3 μSv/MBq
- ED Contr. Total Body [1, 5]: 0.0 μSv/MBq
- ED Contr. ULI Wall [1, 5]: 1.5 μSv/MBq
- ED Contr. Urinary Bladder Wall [1, 5]: 1.0 μSv/MBq
- ED Contr. Uterus [1, 5]: 0.1 μSv/MBq
- ED ICRP 60 ([1]; first-in-human, four healthy volunteers, ICRP 60 weighting): 22.1 μSv/MBq
- adverse effects [1, 6]: no adverse effects reported
- changes in vital signs [1, 6]: no significant changes in vital signs
- clearance of the radioligand from organs ([1]; human TACs, brain, stomach, liver, spleen): rapidly removed from brain, stomach, liver, and spleen within one hour post injection
- actual ED from the human study in comparison to the extrapolated animal data ([1]; human vs extrapolated animal data, p < 0.001): 1.6 fold
- Ki (σ1 receptors [2]): 2.3 nM

Structure (SMILES): [18F]CC[C@H]1OC2(CCN(Cc3ccccc3)CC2)c2ccccc21 [(R)-(+)-[^18F]fluspidine]
- binding potential (BPnd), fold higher in comparison to (S)-(−)-[^18F]fluspidine (σ1 receptors [3]): 5- to 10 fold

— article PMC6273209, “Evaluation of the Enantiomer Specific Biokinetics and Radiation Doses of [^18F]Fluspidine—A New Tracer in Clinical Translation for Imaging of σ1 Receptors” (Molecules, 2016)
